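Test compounds were applied to cells in 96-well plates for 48 hours at 5 doses. At the TGI there is no net growth.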
Columns and labels:
Assay in all cases: NCI-60 cell line screen, 48 h
[1] = tested on: 786-0 renal
[2] = tested on: A498 renal
[3] = tested on: A549 NSCLC
[4] = tested on: ACHN renal
[5] = tested on: CAKI-1 renal
[6] = tested on: CCRF-CEM leukemia
[7] = tested on: COLO 205 colon
[8] = tested on: DLD-1 colon
[9] = tested on: DMS 114 small cell lung
[10] = tested on: DMS 273 small cell lung
[11] = tested on: EKVX NSCLC
[12] = tested on: HCC-2998 colon
[13] = tested on: HCT-116 colon
[14] = tested on: HCT-15 colon
[15] = tested on: HOP-62 NSCLC
[16] = tested on: HT29 colon
[17] = tested on: IGROV1 ovarian
[18] = tested on: K-562 leukemia
[19] = tested on: KM12 colon
[20] = tested on: KM20L2 colon
[21] = tested on: LOX IMVI melanoma
[22] = tested on: LXFL 529 NSCLC
[23] = tested on: M14 melanoma
[24] = tested on: M19-MEL melanoma
[25] = tested on: MALME-3M melanoma
[26] = tested on: MOLT-4 leukemia
[27] = tested on: NCI-H226 lung
[28] = tested on: NCI-H460 lung
[29] = tested on: NCI-H522 lung
[30] = tested on: OVCAR-3 ovarian
[31] = tested on: OVCAR-5 ovarian
[32] = tested on: OVCAR-8 ovarian
[33] = tested on: RPMI-8226 leukemia
[34] = tested on: RXF 393 renal
[35] = tested on: SF-268 CNS
[36] = tested on: SF-295 CNS
[37] = tested on: SF-539 CNS
[38] = tested on: SK-MEL-2 melanoma
[39] = tested on: SK-MEL-5 melanoma
[40] = tested on: SK-OV-3 ovarian
[41] = tested on: SN12C renal
[42] = tested on: SNB-19 CNS
[43] = tested on: SNB-75 CNS
[44] = tested on: SNB-78 CNS
[45] = tested on: SW-620 colon
[46] = tested on: TK-10 renal
[47] = tested on: U251 CNS
[48] = tested on: UACC-257 melanoma
[49] = tested on: UACC-62 melanoma
[50] = tested on: UO-31 renal
[51] = tested on: XF 498 CNS

**Q.** `CCO/N=C(/N)c1ncn(Cc2ccccc2)c1NCC(OCC)OCC` was tested. Which TGI [1] did it give?
**A.** > 100 µM

**Q.** And the TGI [2]?
**A.** > 100 µM

**Q.** What about the TGI [3] of the same compound?
**A.** > 100 µM

**Q.** What about the TGI [4] of the same compound?
**A.** > 100 µM

**Q.** What about the TGI [5] of the same compound?
**A.** > 100 µM

**Q.** What about the TGI [6] of the same compound?
**A.** > 100 µM

**Q.** What about the TGI [7] of the same compound?
**A.** > 100 µM

**Q.** What about the TGI [8] of the same compound?
**A.** > 100 µM

**Q.** What about the TGI [9] of the same compound?
**A.** > 100 µM

**Q.** What about the TGI [10] of the same compound?
**A.** > 100 µM

**Q.** What about the TGI [11] of the same compound?
**A.** > 100 µM

**Q.** And the TGI [12]?
**A.** > 100 µM

**Q.** And the TGI [13]?
**A.** > 100 µM

**Q.** What about the TGI [14] of the same compound?
**A.** > 100 µM

**Q.** And the TGI [15]?
**A.** > 100 µM

**Q.** And the TGI [16]?
**A.** > 100 µM

**Q.** And the TGI [17]?
**A.** > 100 µM

**Q.** What about the TGI [18] of the same compound?
**A.** > 100 µM

**Q.** What about the TGI [19] of the same compound?
**A.** > 100 µM

**Q.** What about the TGI [20] of the same compound?
**A.** > 100 µM

**Q.** What about the TGI [21] of the same compound?
**A.** > 100 µM

**Q.** And the TGI [22]?
**A.** > 100 µM

**Q.** And the TGI [23]?
**A.** > 100 µM

**Q.** What about the TGI [24] of the same compound?
**A.** > 100 µM

**Q.** What about the TGI [25] of the same compound?
**A.** > 100 µM

**Q.** And the TGI [26]?
**A.** > 100 µM

**Q.** And the TGI [27]?
**A.** > 100 µM

**Q.** And the TGI [28]?
**A.** > 100 µM

**Q.** What about the TGI [29] of the same compound?
**A.** > 100 µM

**Q.** What about the TGI [30] of the same compound?
**A.** > 100 µM

**Q.** And the TGI [31]?
**A.** > 100 µM

**Q.** What about the TGI [32] of the same compound?
**A.** > 100 µM

**Q.** And the TGI [33]?
**A.** > 100 µM

**Q.** What about the TGI [34] of the same compound?
**A.** 99.5 µM

**Q.** What about the TGI [35] of the same compound?
**A.** > 100 µM

**Q.** And the TGI [36]?
**A.** > 100 µM

**Q.** What about the TGI [37] of the same compound?
**A.** > 100 µM

**Q.** And the TGI [38]?
**A.** > 100 µM

**Q.** And the TGI [39]?
**A.** > 100 µM

**Q.** And the TGI [40]?
**A.** > 100 µM

**Q.** What about the TGI [41] of the same compound?
**A.** > 100 µM

**Q.** What about the TGI [42] of the same compound?
**A.** > 100 µM

**Q.** And the TGI [43]?
**A.** > 100 µM

**Q.** What about the TGI [44] of the same compound?
**A.** > 100 µM

**Q.** What about the TGI [45] of the same compound?
**A.** > 100 µM

**Q.** What about the TGI [46] of the same compound?
**A.** > 100 µM

**Q.** And the TGI [47]?
**A.** > 100 µM

**Q.** And the TGI [48]?
**A.** > 100 µM

**Q.** What about the TGI [49] of the same compound?
**A.** > 100 µM

**Q.** And the TGI [50]?
**A.** > 100 µM

**Q.** What about the TGI [51] of the same compound?
**A.** > 100 µM

Source: PubChem BioAssay (NCI)
